Earlier results, collected in patent US12618855B2, “Serum protein biomarker panel for idiopathic pulmonary fibrosis” (Children's Hospital Medical Center, priority 2019, dated 2026).

Target: p110β (Homo sapiens, UniProt P42338)
Details: p110β compared with p110α, p110-γ and p110-δ (equipotent)

Sequence of p110β (P42338 whole entry, species assumed): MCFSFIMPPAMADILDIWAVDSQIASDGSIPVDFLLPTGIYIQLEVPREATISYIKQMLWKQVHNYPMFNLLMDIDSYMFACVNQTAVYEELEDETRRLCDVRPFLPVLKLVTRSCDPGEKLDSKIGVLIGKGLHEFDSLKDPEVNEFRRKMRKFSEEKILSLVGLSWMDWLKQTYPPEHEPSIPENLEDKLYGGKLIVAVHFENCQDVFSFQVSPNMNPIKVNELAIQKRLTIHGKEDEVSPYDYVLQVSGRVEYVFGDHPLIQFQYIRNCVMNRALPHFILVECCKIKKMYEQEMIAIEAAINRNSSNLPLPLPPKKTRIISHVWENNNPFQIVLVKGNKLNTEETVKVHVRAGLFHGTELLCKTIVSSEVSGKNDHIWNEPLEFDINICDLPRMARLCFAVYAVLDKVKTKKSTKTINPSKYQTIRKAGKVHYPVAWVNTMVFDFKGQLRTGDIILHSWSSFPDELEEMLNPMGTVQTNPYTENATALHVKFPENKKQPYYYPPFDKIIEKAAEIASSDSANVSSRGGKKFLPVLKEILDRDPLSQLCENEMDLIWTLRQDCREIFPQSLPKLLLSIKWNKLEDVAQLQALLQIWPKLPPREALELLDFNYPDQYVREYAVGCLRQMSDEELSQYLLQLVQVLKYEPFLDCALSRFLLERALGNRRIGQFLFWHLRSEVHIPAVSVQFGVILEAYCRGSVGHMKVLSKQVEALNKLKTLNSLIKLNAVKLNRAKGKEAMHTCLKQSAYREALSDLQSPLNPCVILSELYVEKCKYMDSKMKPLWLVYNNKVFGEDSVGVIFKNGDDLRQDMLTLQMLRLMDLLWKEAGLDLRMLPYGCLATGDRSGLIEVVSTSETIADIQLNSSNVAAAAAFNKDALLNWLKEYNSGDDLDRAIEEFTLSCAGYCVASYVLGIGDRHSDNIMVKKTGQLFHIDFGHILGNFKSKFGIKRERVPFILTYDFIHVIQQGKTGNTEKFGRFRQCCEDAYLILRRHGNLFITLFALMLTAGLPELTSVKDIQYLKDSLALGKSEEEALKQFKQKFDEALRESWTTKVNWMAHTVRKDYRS
Sequence of p110β (P27986 whole entry partner, species assumed): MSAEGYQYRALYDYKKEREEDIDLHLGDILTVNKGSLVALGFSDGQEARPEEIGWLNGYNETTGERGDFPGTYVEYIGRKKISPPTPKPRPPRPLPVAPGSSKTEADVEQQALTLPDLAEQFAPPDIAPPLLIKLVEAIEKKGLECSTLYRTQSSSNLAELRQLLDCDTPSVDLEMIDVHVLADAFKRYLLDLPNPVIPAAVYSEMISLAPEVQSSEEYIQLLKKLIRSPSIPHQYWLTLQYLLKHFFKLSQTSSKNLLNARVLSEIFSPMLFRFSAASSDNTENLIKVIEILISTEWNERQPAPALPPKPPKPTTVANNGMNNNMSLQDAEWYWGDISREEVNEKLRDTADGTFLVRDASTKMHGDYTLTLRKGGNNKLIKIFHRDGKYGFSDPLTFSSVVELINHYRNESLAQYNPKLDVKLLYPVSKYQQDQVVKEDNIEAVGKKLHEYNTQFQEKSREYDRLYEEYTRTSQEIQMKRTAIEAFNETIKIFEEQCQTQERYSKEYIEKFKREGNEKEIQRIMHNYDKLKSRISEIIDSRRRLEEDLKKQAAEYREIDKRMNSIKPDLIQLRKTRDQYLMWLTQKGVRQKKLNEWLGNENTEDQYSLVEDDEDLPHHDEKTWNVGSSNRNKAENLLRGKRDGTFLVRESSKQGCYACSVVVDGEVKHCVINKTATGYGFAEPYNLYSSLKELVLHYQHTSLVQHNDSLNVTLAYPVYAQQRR

lower potency of p110β inhibition: 30 fold
SMILES: Cc1nc(-c2cn3c(n2)-c2ccc(-c4cnn(C(C)(C)C(N)=O)c4)cc2OCC3)n(C(C)C)n1 [Taselisib]
